# Reference: ChEMBL document CHEMBL1201862, “PubChem BioAssay data set” (2004)
#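 Briefly, cells in 96-well plates were exposed to five compound concentrations for 48 h, and endpoints were estimated by linear interpolation. GI50 = concentration required for 50% inhibition of growth.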 Activity calls are given as the source filed them. Rule as the data show it: active = GI50 up to about 1.1 µM and inactive = higher.
# Columns and labels:
# Assay in all cases: growth of human tumour cells (NCI), 48 h
# [1] = system: A498
# [2] = system: A549
# [3] = system: COLO 205
# [4] = system: DU-145
# [5] = system: HOP-62
# [6] = system: HT-29
# [7] = system: Hs-578T
# [8] = system: PC-3
# [9] = system: RPMI-8226
# [10] = system: RXF 393
# [11] = system: SF-268
# [12] = system: SF-295
# [13] = system: SK-OV-3
# [14] = system: SN12C
# [15] = system: SNB-19
# [16] = system: SNB-75
# [17] = system: SW-620
# [18] = system: UACC-62
# [19] = system: UO-31
# [20] = system: HCC 2998
Compound,GI50 [1],GI50 [2],GI50 [3],GI50 [4],GI50 [5],GI50 [6],GI50 [7],GI50 [8],GI50 [9],GI50 [10],GI50 [11],GI50 [12],GI50 [13],GI50 [14],GI50 [15],GI50 [16],GI50 [17],GI50 [18],GI50 [19],GI50 [20]
C[Si](C)(c1ccc(C(=O)O)cc1)c1ccc(C(=O)O)cc1,> 100 µM (inactive),> 100 µM (inactive),> 100 µM (inactive),> 100 µM (inactive),> 100 µM (inactive),> 100 µM (inactive),> 100 µM (inactive),> 100 µM (inactive),> 100 µM (inactive),> 100 µM (inactive),> 100 µM (inactive),> 100 µM (inactive),> 100 µM (inactive),> 100 µM (inactive),> 100 µM (inactive),> 100 µM (inactive),> 100 µM (inactive),> 100 µM (inactive),–,–
CC(=O)Nc1cc(CN2CCCCC2)c(O)c2ncccc12,65.9 µM (inactive),32.9 µM (inactive),49.7 µM (inactive),6.75 µM (inactive),27.2 µM (inactive),44.5 µM (inactive),67.3 µM (inactive),21.6 µM (inactive),12.1 µM (inactive),4.29 µM (inactive),23.7 µM (inactive),25.4 µM (inactive),36.5 µM (inactive),26 µM (inactive),39.7 µM (inactive),–,39.7 µM (inactive),19.6 µM (inactive),7.35 µM (inactive),–
Clc1cccc(Cl)c1C(Nc1nncs1)Nc1nncs1,49.2 µM (inactive),48.9 µM (inactive),35.4 µM (inactive),51.5 µM (inactive),50.4 µM (inactive),14.1 µM (inactive),71.3 µM (inactive),9.35 µM (inactive),46 µM (inactive),33.5 µM (inactive),81.7 µM (inactive),38.2 µM (inactive),32 µM (inactive),38.4 µM (inactive),52 µM (inactive),> 100 µM (inactive),20.7 µM (inactive),67 µM (inactive),62.7 µM (inactive),–
C=CC(Br)(CBr)CCC(Br)C(C)C (configuration not stated),18.7 µM (inactive),14.1 µM (inactive),5.93 µM (inactive),8.55 µM (inactive),3.18 µM (inactive),2.79 µM (inactive),2.64 µM (inactive),7 µM (inactive),1.25 µM (inactive),5.89 µM (inactive),5.48 µM (inactive),4.26 µM (inactive),16.6 µM (inactive),10.7 µM (inactive),9.84 µM (inactive),1.95 µM (inactive),2.2 µM (inactive),3.12 µM (inactive),13 µM (inactive),–
CCCCCCc1cc2cc(-c3cn4c(n3)sc3ccccc34)c(=O)oc2cc1O,–,> 100 µM (inactive),> 100 µM (inactive),> 100 µM (inactive),73.1 µM (inactive),15.4 µM (inactive),> 25.1 µM (inactive),> 100 µM (inactive),> 100 µM (inactive),> 48.3 µM (inactive),> 100 µM (inactive),> 100 µM (inactive),> 100 µM (inactive),> 100 µM (inactive),> 100 µM (inactive),> 78.5 µM (inactive),> 78.7 µM (inactive),2.36 µM (inactive),> 100 µM (inactive),> 100 µM (inactive)
O=C1/C(=N\n2c(S)nnc2-c2ccncc2)c2cc(Cl)ccc2N1CN1CCCCC1,50.9 µM (inactive),53.2 µM (inactive),41 µM (inactive),29.6 µM (inactive),30.3 µM (inactive),31.2 µM (inactive),19.8 µM (inactive),34.5 µM (inactive),–,15.8 µM (inactive),53.5 µM (inactive),94 µM (inactive),39.5 µM (inactive),55.8 µM (inactive),76 µM (inactive),34.3 µM (inactive),18.6 µM (inactive),34.4 µM (inactive),56.5 µM (inactive),–
CSc1nc2ccccc2c(=O)n1/N=C1\C(=O)N(CN2CCCCC2)c2ccc(Cl)cc21,27.8 µM (inactive),37.2 µM (inactive),17.9 µM (inactive),17.3 µM (inactive),33.3 µM (inactive),36.7 µM (inactive),37.7 µM (inactive),29.4 µM (inactive),–,17.5 µM (inactive),20.1 µM (inactive),37 µM (inactive),27.4 µM (inactive),28.7 µM (inactive),61.5 µM (inactive),19.7 µM (inactive),12.5 µM (inactive),8.89 µM (inactive),45.8 µM (inactive),–
CC(=O)Oc1ccc2c(c1)O/C(=C\c1ccc(N(C)C)cc1)C2=O,–,> 100 µM (inactive),> 100 µM (inactive),> 100 µM (inactive),> 100 µM (inactive),> 100 µM (inactive),21 µM (inactive),> 100 µM (inactive),54.6 µM (inactive),73.5 µM (inactive),> 100 µM (inactive),–,> 100 µM (inactive),62.7 µM (inactive),53.8 µM (inactive),87.9 µM (inactive),52.2 µM (inactive),> 100 µM (inactive),26.3 µM (inactive),> 100 µM (inactive)
N#CCCN(CCC#N)c1ccc(/C=C2\N=C(c3ccccc3)N(c3ccc(C(=O)O)cc3)C2=O)cc1,> 100 µM (inactive),> 100 µM (inactive),39 µM (inactive),69.2 µM (inactive),> 100 µM (inactive),95.1 µM (inactive),22.3 µM (inactive),37.5 µM (inactive),46.8 µM (inactive),40.7 µM (inactive),21.1 µM (inactive),48.8 µM (inactive),> 100 µM (inactive),70.1 µM (inactive),32.2 µM (inactive),–,21 µM (inactive),23.8 µM (inactive),77.1 µM (inactive),–
CN1C2CCC1CC(CCOC(c1ccc(F)cc1)c1ccc(F)cc1)C2 (configuration not stated),17.8 µM (inactive),19.4 µM (inactive),11.7 µM (inactive),15.7 µM (inactive),16 µM (inactive),6.73 µM (inactive),17.8 µM (inactive),15.5 µM (inactive),18.6 µM (inactive),10.4 µM (inactive),15.8 µM (inactive),16.9 µM (inactive),16.6 µM (inactive),18.4 µM (inactive),20.7 µM (inactive),14.3 µM (inactive),19.4 µM (inactive),–,14.6 µM (inactive),–
COC1=C2C[C@](OC)(C#CC=CC#CC2O)CC1(C)C (some centres not stated),–,40.4 µM (inactive),> 100 µM (inactive),> 100 µM (inactive),> 100 µM (inactive),> 100 µM (inactive),> 100 µM (inactive),> 100 µM (inactive),95.5 µM (inactive),> 100 µM (inactive),> 100 µM (inactive),> 100 µM (inactive),–,> 100 µM (inactive),> 100 µM (inactive),> 100 µM (inactive),> 100 µM (inactive),34.6 µM (inactive),28.6 µM (inactive),37.3 µM (inactive)
COc1ccc2[nH]c3c(c2c1)CC(=O)N1CCCC(CC3O)C1 (configuration not stated),> 100 µM (inactive),> 100 µM (inactive),> 100 µM (inactive),> 100 µM (inactive),–,> 100 µM (inactive),> 100 µM (inactive),> 100 µM (inactive),> 100 µM (inactive),–,> 100 µM (inactive),> 100 µM (inactive),> 100 µM (inactive),> 100 µM (inactive),> 100 µM (inactive),> 100 µM (inactive),> 100 µM (inactive),> 100 µM (inactive),> 100 µM (inactive),> 100 µM (inactive)
O=c1c2ccccc2nc2n1C(c1ccc([N+](=O)[O-])cc1)C2(c1ccccc1)c1ccccc1 (configuration not stated),> 100 µM (inactive),12.9 µM (inactive),8.3 µM (inactive),> 100 µM (inactive),> 100 µM (inactive),9.98 µM (inactive),66.2 µM (inactive),24 µM (inactive),8.2 µM (inactive),> 100 µM (inactive),> 100 µM (inactive),> 100 µM (inactive),> 100 µM (inactive),> 100 µM (inactive),14.5 µM (inactive),–,> 100 µM (inactive),> 100 µM (inactive),–,–
CCCCNC(=S)c1ccc(OC(=O)Nc2ccc(Cl)cc2)cc1,85.1 µM (inactive),39.1 µM (inactive),15.9 µM (inactive),> 100 µM (inactive),> 100 µM (inactive),8.18 µM (inactive),57.7 µM (inactive),> 100 µM (inactive),65.2 µM (inactive),–,49.1 µM (inactive),> 100 µM (inactive),> 100 µM (inactive),–,> 100 µM (inactive),–,> 100 µM (inactive),0.914 µM (active),19.7 µM (inactive),> 100 µM (inactive)
c1ccc(CN2CCC(=NN3CCCCC3)CC2)cc1,–,> 100 µM (inactive),28.1 µM (inactive),> 100 µM (inactive),> 100 µM (inactive),32.4 µM (inactive),35 µM (inactive),54.8 µM (inactive),27.7 µM (inactive),35.1 µM (inactive),88.1 µM (inactive),> 100 µM (inactive),> 100 µM (inactive),> 100 µM (inactive),> 100 µM (inactive),61.2 µM (inactive),> 100 µM (inactive),> 100 µM (inactive),64.7 µM (inactive),51.1 µM (inactive)
